Patent US12398121B2 (Nuvation Bio Inc., priority 2018, dated 2025)

System: MCF-7 cells
Experiment: Cell proliferation assay (CellTiter Glo), MCF-7
Type: cell-based
Details: Homo sapiens, MCF7, 168 h; cell growth inhibition, six or seven days total treatment
Description: IC50 values were calculated and graphed using the model “log(inhibitor) vs. response—Variable slope” included in GraphPad Prism 5 (San Diego, CA). The Ki values were further calculated using the equation below where [L] was the radioligand concentration (1 nM) using in this study. Kd value was 0.332 nM. Ki=IC50/(1+[L]/Kd) c. AR transactivation: Human AR cloned into a CMV vector backbone was used for the transactivation study. HEK-293 cells were plated at 80,000 cells per well of a 24 well plate in DME+5% csFBS. Twenty four hours later, the cells were transfected using Lipofectamine (Invitrogen, Carlsbad, CA) with 0.25 μg GRE-LUC, 0.01 μg CMV-LUC (renilla luciferase) and 25 ng of the AR in OPTIMEM medium. The cells were treated 24 hrs after transfection with various ligands (10^−12 to 10^−5 M final concentrations) and luciferase assay were performed 48 hours after transfection. Firefly values were normalized to renilla luciferase values and the values were represented as relative light units (RLU). Agonist and antagonist assays for the test article were performed in the absence and in the combination with 0.1 nM R1881, respectively. Data were represented as EC50 (for agonists) and IC50 (for antagonists) obtained from four parameter logistics curve. Cell culture and proliferation assays: LNCaP, PC-3, 22RV1, MCF-7, HT-29, and HCT-116 cells were procured from American Type Culture Collection (ATCC). Cells were cultured in medium recommended by the ATCC. Cell culture medium was obtained from Fisher scientific (Waltham, MA) and serum was obtained from Hyclone (San Angelo, TX).
Cells were plated at varying density in the respective growth medium in 96 well plates. […] The number of viable 22RV1 and HT-29 cells was measured using CellTiter Glo assay (CTG, Promega, Madison, WI) after three days of treatment. The other types of cancer cells were re-treated at three or four days and the number of viable cells was measured using CTG assay after a total treatment time of six or seven days. […] The number of viable cells is measured using CellTiter Glo assay (CTG, Promega, Madison, WI) or similar. […]

SMILES	IC50 [µM]
CN(CCCCCC(=O)N1CCN(C(=O)c2cc(Cc3n[nH]c(=O)c4ccccc34)ccc2F)CC1)CCOc1ccc(C(=O)c2c(-c3ccc(O)cc3)sc3cc(O)ccc23)cc1 [Compound 2.4, 4-(4-fluoro-3-(4-(6-((2-(4-(6-hydroxy-2-(4-hydroxyphenyl)benzo[b]thiophene-3-carbonyl)phenoxy)ethyl)(methyl)amino)hexanoyl)piperazine-1-carbonyl)benzyl)phthalazin-1(2H)-one]	11
O=C(c1ccc(OCCN2CCN(C(=O)c3cc(Cc4n[nH]c(=O)c5ccccc45)ccc3F)CC2)cc1)c1c(-c2ccc(O)cc2)sc2cc(O)ccc12 [Compound 2.13, 4-(4-fluoro-3-(4-(2-(4-(6-hydroxy-2-(4-hydroxyphenyl)benzo[b]thiophene-3-carbonyl)phenoxy)ethyl)piperazine-1-carbonyl)benzyl)phthalazin-1(2H)-one]	3.6
CCC(=C(c1ccc(O)cc1)c1ccc(OCCN2CCN(C(=O)c3cc(Cc4n[nH]c(=O)c5ccccc45)ccc3F)CC2)cc1)c1ccccc1 [Compound 2.14, 4-(4-fluoro-3-(4-(2-(4-(1-(4-hydroxyphenyl)-2-phenylbut-1-enyl)phenoxy)ethyl)piperazine-1-carbonyl)benzyl)pthalazin-1(2H)-one]	9.3
